What all share (type): in vivo, Arabidopsis thaliana
Series [1] concerns Arabidopsis leaves. As to the kind of experiment: LC-MS time course of Arabidopsis leaves infiltrated with ascr #18. Particulars: Arabidopsis leaves infiltrated with 1 μM ascr #18. An excerpt: FIG. 2A provides LC-MS analysis of tomato roots treated with ascr #18 or ^13C2-labeled ascr #18. Plants treated with ^13C2-labeled ascr #18 show peaks at 333.21932 and 249.12542, representing [M-H]^− of ^13C2-ascr #18 and ^13C2-ascr #9, but not at 331.21261 and 247.11871, which correspond to [M-H]^− of ascr #18 and ascr #9, and vice versa. Structures of ascr #18 and ascr #9 indicating the positions of the ^13C2-label are shown above ion chromatograms. Peaks marked with an asterisk represent unrelated peaks. FIGS. 2B and 2C provide graphs showing the relative abundances of ascr #18 and ascr #9, respectively, as measured by LC-MS. Four-week old Arabidopsis leaves were infiltrated with 1 μM ascr #18, and leaf tissue were harvested for LC-MS analyses over a period of 96 hours post infiltration of ascr #18. Data are averages±SEM (n=3). FIG. 2D provides LC-MS analyses of tomato leaves infiltrated with 1 μM ascr #18. Tissues were collected over a 12 hour period. Abundances of ascr #18 and ascr #9 are shown as the peak area, as measured by LC-MS. […] To test whether microbes are required for the observed metabolic transformations, leaves of 4-week old Arabidopsis plants were directly infiltrated with ascr #18 and leaf tissue was subsequently harvested for analysis by LC-MS as above. […] About 50% of ascr #18 was metabolized during the first 12 hours, during which time concomitant accumulation of ascr #9 was observed. Formation of ascr #9 was also observed in leaves of 4-week old tomato plants infiltrated with ascr #18 (FIG. 2D).

Series [2] has as its system Arabidopsis wildtype and ibr10, ech2, ech2ibr10, or acx1acx5 mutants. Particulars: for ascaroside levels in ascr #18-treated acx1acx5 mutant compared with wildtype: roots treated with 1 μM ascr #18. The method, then: FIG. 3A provides a comparison of peroxisomal β-oxidation (pβo) pathways and associated enzymes involved in the conversion of indole-3-butyric acid (IBA)-to-indole acetic acid (IAA) in Arabidopsis and ascaroside biosynthesis in C. elegans. FIG. 3B provides LC-MS analysis of Arabidopsis seedlings treated with 1 μM ascr #18 for 24 hours before sample extraction, comparing ascr #9 production in wildtype and ibr10, ech2, ech2ibr10, or acx1acx5 mutants. FIG. 3C provides a comparison of ascaroside abundances in Arabidopsis wildtype and acx1acx5 roots treated with 1 μM ascr #18. Data are averages±SEM (n=5); n.d.=not detected. FIG. 3D provides RNAseq analysis of ten day-old Arabidopsis wildtype and acx1acx5 mutant roots, plotted as transcript abundance. Data are averages±s.d (n=6).
Arabidopsis thaliana mutant genotypes in the Col-0 background, ibr10-1, ech2-1, ibr10-1ech2-1, and acx1-2acx5-1, were obtained from Rice University (Houston, TX) (Strader, et al. (2011) Plant Cell 23:984-999; Adham, et al. (2005) Plant J. 41:859-874).
To test whether ascr #18 is metabolized via pβo in plants, Arabidopsis mutants impaired in key enzymes of this pathway were analyzed (FIG. 3B). […] In contrast, two other putative po genes, ibr10 and ech2, a putative enoyl-CoA hydratases (Strader, et al. (2011) Plant Cell 23:984-999; Adham, et al. (2005) Plant J. 41:859-874; Zolman, et al. (2008) Genetics 180(1): 237-51), are not required for ascr #18 metabolism in Arabidopsis. ACXs participate in the […] step of pβo by introducing α,β-unsaturation in the side-chain (Von Reuss, et al. (2012) J. Am. Chem. Soc. 134:1817-1824; Strader, et al. (2011) Plant Cell 23:984-999). […] These observations indicate that ascr #18 metabolism in plants into shorter-chained ascarosides proceeds via pβo, and that ACX1 and/or ACX5 are strictly required for chain shortening of ascr #10, whereas the first chain-shortening step from ascr #18 to ascr #10 may involve additional acyl-CoA oxidases.

In series [3] the test system is Arabidopsis root exudates. As to the kind of experiment: LC-MS of root exudates of ascr #18-treated Arabidopsis seedlings. The method, then: Data are average±SEM (n=6), n.d.=not detected. […] Exudates from approximately 40 seedlings were collected in distilled water and pooled. Abundances of ascarosides are shown as the peak area, as measured by LC-MS. Data are average±SEM (n=3); n.d.=not detected. FIGS. 5C and 5D show the relative abundances of ascarosides in root exudates of eight-day old tomato seedlings treated with 10 nM (FIG. 5C) or 1000 nM (FIG. 5D) ascr #18 for 6 hours. Exudates from approximately 10 seedlings were collected in distilled water and pooled. Abundances of ascarosides are shown as the peak area, as measured by LC-MS. Data are average±SEM (n=3); n.d.=not detected. FIG. 5E provides the relative abundances of ascr #10, ascr #1, and ascr #9 in the growth media of eight-day old tomato seedlings supplemented with 1 μM ascr #18. Ten-gram media samples were collected at different time points over a 48 hour period for metabolome extraction. Abundances of ascarosides are shown as the peak area, as measured by LC-MS.
To test this possibility, root-secreted metabolites of ascr #18- and mock-treated Arabidopsis were compared (FIG. 5A). For this experiment, 10-day old Arabidopsis seedlings were treated in growth media supplemented with ascr #18 for 6 hours prior to collection of exudates from roots submerged in water. […] Analogous results were obtained in experiments with tomato roots (FIG. 5C, 5D).

Each structure is given as a SMILES string.

For the molecule `C[C@H](CCC(=O)O)O[C@@H]1O[C@@H](C)[C@H](O)C[C@H]1O` [ascr #9], the “time of peak ascr #9 concentration post-infiltration” value in series [1] is no more than 12 h. For the same molecule, the “ascr #9 concentration at 96 hours” value in series [1] (96 hours) is given as “very low levels”. Also, the “ascaroside levels in ascr #18-treated acx1acx5 mutant compared with wildtype” value in series [2] is on record as “not detected”. The “relative abundance among root-excreted ascr #18 metabolites” value in series [3] (Arabidopsis) was “most abundant”. Besides, the “secretion of ascr #18 metabolites via roots” value in series [3] (ascr #18-treated wildtype, 6 hours treatment) is recorded as “secretion”.
For `CC1O[C@@H](O[C@@H](C)CCCCCCCCC(=O)O)C(O)C[C@H]1O` (stereo in doubt) [ascr #18, (10R)-(3′R,5′R-dihydroxy-6′S-methyl-(2H)-tetrahydropyran-2-yloxy)-undecanoic acid], the “ascr #18 metabolized” value in series [1] (first 12 hours) is recorded as “About 50%”. In addition, the “metabolism of ascr #18 into shorter-chained ascarosides” value in series [2] (acx1acx5 mutant, 1 μM ascr #18, 24 hours) is “dramatically reduced”. The “requirement of ibr10 and ech2 for ascr #18 metabolism” value in series [2] (ibr10, ech2 mutants, 1 μM ascr #18, 24 hours) is on record as “not required”. Also, the “ascaroside levels in ascr #18-treated acx1acx5 mutant compared with wildtype” value in series [2] was “elevated levels”. For the same molecule, the “ascarosides in root exudates of acx1acx5” value in series [3] (acx1acx5 seedlings, 10 nM ascr #18 for 6 hours) is “larger amounts of residual ascr #18 than in wildtype”.

Values taken from patent publication US20260000079A1, “COMPOSITIONS AND METHODS FOR MODULATING IMMUNITY IN PLANTS” (BOYCE THOMPSON INSTITUTE FOR PLANT RESEARCH, INC., priority 2019, published 2026).
